Measured values as given in article PMC3692431, “Anticonvulsant Activity of B2, an Adenosine Analog, on Chemical Convulsant-Induced Seizures” (PLoS ONE, 2013).

Test system: strychnine-induced seizures
Assay: Strychnine-induced seizures in mice
Format: in vivo
Conditions: strychnine 1.5 mg/kg i.p.; for mortality rate: control 88%; for latency to seizure onset prolonged by: vs control
Description: KA was dissolved in saline and the pH was adjusted to neutrality. The final concentration of KA was 0.7 µg/µl, and the convulsant dose was 1 µl (i.c.v.). […] The selective adenosine receptor antagonist DPCPX or SCH58261 was administered (i.p.) 5 min before administration of B2 or vehicle.
Mice were injected with B2 (1.25, 5, 20 mg/kg), carbamazepine (80 mg/kg) or vehicle 20 min before administration of strychnine (1.5 mg/kg) or 4-AP (13 mg/kg). […] The time of latency to seizure onset and mortality rate were recorded.

## COc1cc(CNc2ncnc3c2ncn3[C@@H]2O[C@H](CO)[C@@H](O)[C@H]2O)ccc1O [B2, N^6-(3-methoxyl-4-hydroxybenzyl) adenine riboside]
B2 1.25 mg/kg i.p.
  mortality rate: 71%
  latency to seizure onset prolonged by: 45%
B2 5 mg/kg i.p.
  mortality rate: 43%
  latency to seizure onset prolonged by: 88%
B2 20 mg/kg i.p.
  mortality rate: 57%
  latency to seizure onset prolonged by: 89%
